Measurements from PubChem BioAssay (NCI).
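Results reflect a 48-hour exposure of cells in 96-well plates to compound at five concentrations. Here, GI50 denotes the concentration required for 50% inhibition of growth. TGI denotes the concentration required for complete inhibition of growth.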

Columns and labels:
Experiment in all cases: NCI anticancer screen, dose series, 48 h
[1] = test system: 786-0 renal
[2] = test system: A498 renal
[3] = test system: A549 NSCLC
[4] = test system: ACHN renal
[5] = test system: BT-549 breast
[6] = test system: CAKI-1 renal
[7] = test system: CCRF-CEM leukemia
[8] = test system: COLO 205 colon
[9] = test system: DU-145 prostate
[10] = test system: EKVX NSCLC
[11] = test system: HCC-2998 colon
[12] = test system: HCT-116 colon
[13] = test system: HCT-15 colon
[14] = test system: HL-60(TB) leukemia
[15] = test system: HOP-62 NSCLC
[16] = test system: HOP-92 NSCLC
[17] = test system: HS 578T breast
[18] = test system: HT29 colon
[19] = test system: IGROV1 ovarian
[20] = test system: K-562 leukemia
[21] = test system: KM12 colon
[22] = test system: LOX IMVI melanoma
[23] = test system: M14 melanoma
[24] = test system: MALME-3M melanoma
[25] = test system: MCF7 breast
[26] = test system: MDA-MB-231 breast
[27] = test system: MDA-MB-435
[28] = test system: MOLT-4 leukemia
[29] = test system: NCI-H226 lung
[30] = test system: NCI-H23 lung
[31] = test system: NCI-H460 lung
[32] = test system: NCI-H522 lung
[33] = test system: NCI/ADR-RES ovarian
[34] = test system: OVCAR-3 ovarian
[35] = test system: OVCAR-4 ovarian
[36] = test system: OVCAR-5 ovarian
[37] = test system: OVCAR-8 ovarian
[38] = test system: PC-3 prostate
[39] = test system: RPMI-8226 leukemia
[40] = test system: RXF 393 renal
[41] = test system: SF-268 CNS
[42] = test system: SF-295 CNS
[43] = test system: SF-539 CNS
[44] = test system: SK-MEL-2 melanoma
[45] = test system: SK-MEL-28 melanoma
[46] = test system: SK-MEL-5 melanoma
[47] = test system: SK-OV-3 ovarian
[48] = test system: SN12C renal
[49] = test system: SNB-19 CNS
[50] = test system: SNB-75 CNS
[51] = test system: SR leukemia
[52] = test system: SW-620 colon
[53] = test system: T-47D breast
[54] = test system: TK-10 renal
[55] = test system: U251 CNS
[56] = test system: UACC-257 melanoma
[57] = test system: UACC-62 melanoma
[58] = test system: UO-31 renal

SMILES: O=C1/C(=C/c2ccc(O)c(O)c2)COc2ccc(-c3ccccc3)cc21
- GI50 [1]: 1.94 µM
- TGI [1]: 5.55 µM
- GI50 [2]: 2.2 µM
- TGI [2]: 7.71 µM
- GI50 [3]: 3.16 µM
- TGI [3]: 18.1 µM
- GI50 [4]: 1.53 µM
- TGI [4]: 3.22 µM
- GI50 [5]: 2.37 µM
- TGI [5]: 10.6 µM
- GI50 [6]: 3.66 µM
- TGI [6]: 33.2 µM
- GI50 [7]: 0.329 µM
- GI50 [8]: 0.732 µM
- TGI [8]: 2.15 µM
- GI50 [9]: 1.77 µM
- TGI [9]: 4.48 µM
- GI50 [10]: 5.39 µM
- TGI [10]: 18.1 µM
- GI50 [11]: 1.49 µM
- TGI [11]: 2.98 µM
- GI50 [12]: 1.23 µM
- TGI [12]: 2.65 µM
- GI50 [13]: 0.697 µM
- TGI [13]: 2.24 µM
- GI50 [14]: 0.435 µM
- TGI [14]: 4.47 µM
- GI50 [15]: 3.55 µM
- TGI [15]: 11.6 µM
- GI50 [16]: 1.74 µM
- TGI [16]: 8.59 µM
- GI50 [17]: 3.21 µM
- TGI [17]: 13.9 µM
- GI50 [18]: 1.5 µM
- TGI [18]: 3.16 µM
- GI50 [19]: 1.39 µM
- TGI [19]: 6.41 µM
- GI50 [20]: 1.85 µM
- TGI [20]: 8.31 µM
- GI50 [21]: 1.42 µM
- TGI [21]: 3.39 µM
- GI50 [22]: 1.43 µM
- TGI [22]: 2.84 µM
- GI50 [23]: 2.02 µM
- TGI [23]: 5.28 µM
- GI50 [24]: 1.7 µM
- TGI [24]: 5.55 µM
- GI50 [25]: 0.666 µM
- TGI [25]: 5.06 µM
- GI50 [26]: 2.26 µM
- TGI [26]: 8.47 µM
- GI50 [27]: 1.17 µM
- TGI [27]: 3.48 µM
- GI50 [28]: 0.531 µM
- TGI [28]: 4.73 µM
- GI50 [29]: 4.15 µM
- TGI [29]: 32.8 µM
- GI50 [30]: 2.28 µM
- TGI [30]: 10.9 µM
- GI50 [31]: 1.99 µM
- TGI [31]: 5.67 µM
- GI50 [32]: 0.334 µM
- TGI [32]: 1.16 µM
- GI50 [33]: 2.24 µM
- TGI [33]: > 26.8 µM
- GI50 [34]: 0.874 µM
- TGI [34]: 3.48 µM
- GI50 [35]: 2.2 µM
- TGI [35]: 10.2 µM
- GI50 [36]: 3.71 µM
- TGI [36]: 16.1 µM
- GI50 [37]: 3.29 µM
- TGI [37]: 22 µM
- GI50 [38]: 1.8 µM
- TGI [38]: 10.7 µM
- GI50 [39]: 0.187 µM
- TGI [39]: 0.588 µM
- GI50 [40]: 1.71 µM
- TGI [40]: 3.86 µM
- GI50 [41]: 2.11 µM
- TGI [41]: 7.33 µM
- GI50 [42]: 2.84 µM
- TGI [42]: 13 µM
- GI50 [43]: 1.91 µM
- TGI [43]: 3.89 µM
- GI50 [44]: 3.64 µM
- TGI [44]: 10.7 µM
- GI50 [45]: 1.6 µM
- TGI [45]: 3.07 µM
- GI50 [46]: 1.57 µM
- TGI [46]: 3.77 µM
- GI50 [47]: 4.77 µM
- TGI [47]: 37.7 µM
- GI50 [48]: 2.47 µM
- TGI [48]: 10.6 µM
- GI50 [49]: 3.51 µM
- TGI [49]: 14.7 µM
- GI50 [50]: 2.98 µM
- TGI [50]: 11.6 µM
- GI50 [51]: 0.616 µM
- GI50 [52]: 0.875 µM
- TGI [52]: 2.46 µM
- GI50 [53]: 0.959 µM
- TGI [53]: 3.61 µM
- GI50 [54]: 1.73 µM
- TGI [54]: 6.91 µM
- GI50 [55]: 1.45 µM
- TGI [55]: 3.38 µM
- GI50 [56]: 3.89 µM
- TGI [56]: 16.9 µM
- GI50 [57]: 2.01 µM
- TGI [57]: 5.78 µM
- GI50 [58]: 1.22 µM
- TGI [58]: 2.93 µM
